Reference: patent US8323971B2, “Differentiation of pluripotent cells into primary germ layer progenitors” (Cambridge Enterprise Limited, priority 2006, dated 2012)

Test system: hESCs
Assay: Real time PCR of hESCs after addition of BMP4 in CDM (extra-embryonic differentiation)
Format: cell-based, human
Conditions: 10 ng/ml in CDM
Experimental: hESCs grown in Feeder free and serum free conditions were harvested using 5 mg/ml collagenase IV then plated into plates pre-coated with fibronectin. hESCs were grown for 48 hours in CDM supplemented with Activin (10 ng/ml, RandD systems) and FGF2 (12 ng/ml, RandD systems). To induce extra-embryonic differentiation, hESCs were grown for 5 additional days in CDM supplemented with BMP4 (10 ng/ml, RandD systems). To obtain neuroectoderm progenitors, hESCs were grown in CDM or in CDM-PVA in the presence of SB431542 (10 μM Tocris) and FGF2 (12 ng/ml, RandD systems) for 7 additional days. The resulting cells were grown in non-adherent conditions for 10 days and then plated back for 5 additional days in CDM to obtain fully differentiated neuronal cells. To obtain mesendoderm precursors, hESCs were grown for 3 additional days in CDM-PVA in the presence of SU5402 (10 μM, Calbiochem) and Activin (5 ng/ml, RandD systems). On the fifth day after passaging, the resulting cells were grown in CDM-PVA in the presence of BMP4 (10 ng/ml, RandD systems), FGF2 (20 ng/ml, RandD systems) and Activin (30 ng/ml or 100 ng/ml, RandD systems).
Total RNAs were extracted from hESCs or differentiated progenitors using the RNeasy Mini or Micro Kits (Qiagen). Each sample was treated with RNAse-Free DNAse (Qiagen) in order to avoid DNA contamination. […]

BMP4: Bone Morphogenetic Protein 4 growth factor
expression of extra-embryonic markers including GATA6 and H19: strongly enhanced | level of Oct-4 transcripts (after 16 hours): significant decrease
